Source: the NIST ThermoML archive (doi:10.1016/j.jct.2016.07.046)

Experiment: mn = molality of the nth substance listed, in mol/kg
Conditions: 87 kPa, Liquid, Vibrating tube method

CCn1cc[n+](C)c1.O=S(=O)([O-])O [1-ethyl-3-methylimidazolium hydrogen sulfate] + O
mass density [kg/m3]
Conditions	293.15 K	298.15 K	303.15 K	308.15 K	313.15 K
m1 = 0.05	1001.85	1000.62	999.15	997.45	995.6
m1 = 0.1	1005.19	1003.89	1002.36	1000.61	998.69
m1 = 0.15	1008.26	1006.91	1005.32	1003.53	1001.51

N[C@@H](CO)C(=O)O [L-serine] + O
mass density [kg/m3]
Conditions	m1 = 0.0529	m1 = 0.1005	m1 = 0.1529	m1 = 0.2024	m1 = 0.2541	m1 = 0.3019	m1 = 0.3525	m1 = 0.4023	m1 = 0.4535	m1 = 0.5008
293.15 K	1000.59	1002.7	1005	1007.15	1009.38	1011.42	1013.56	1015.65	1017.77	1019.72
298.15 K	999.41	1001.5	1003.78	1005.92	1008.13	1010.15	1012.27	1014.34	1016.44	1018.37
303.15 K	997.99	1000.06	1002.33	1004.45	1006.64	1008.65	1010.76	1012.81	1014.9	1016.82
308.15 K	996.36	998.42	1000.67	1002.77	1004.94	1006.94	1009.04	1011.08	1013.16	1015.07
313.15 K	994.5	996.54	998.77	1000.85	1003.01	1004.99	1007.07	1009.11	1011.18	1013.07

NCC(=O)O [2-aminoacetic acid] + O
mass density [kg/m3]
Conditions	m1 = 0.0547	m1 = 0.1057	m1 = 0.1546	m1 = 0.2061	m1 = 0.2531	m1 = 0.3046	m1 = 0.3538	m1 = 0.403	m1 = 0.452	m1 = 0.499
293.15 K	999.97	1001.59	1003.13	1004.74	1006.2	1007.78	1009.28	1010.77	1012.24	1013.64
298.15 K	998.8	1000.41	1001.94	1003.54	1004.99	1006.56	1008.06	1009.54	1011	1012.39
303.15 K	997.39	998.99	1000.51	1002.1	1003.53	1005.09	1006.57	1008.04	1009.48	1010.86
308.15 K	995.77	997.36	–	1000.45	1001.88	1003.42	1004.89	1006.35	1007.78	1009.14
313.15 K	993.92	995.5	997	–	999.99	1001.53	1002.98	1004.43	1005.86	1007.22
